From US10774083B2, “Heterocyclic amide compound” (TAKEDA PHARMACEUTICAL COMPANY LIMITED, priority 2016, dated 2020)

Assays:
[1] = target: T1, human PRS protein (His-Avi-hEPRS (998-1512)) (Homo sapiens, UniProt P07814); test: PRS inhibitory activity ([32P]pyrophosphate exchange enzyme assay); assay type: biochemical; conditions: 300 nM test compound; read-out: inhibitory rate (%) of PRS
T1 construct: to construct His-Avi-hEPRS (998-1512) expression plasmid; His tag (N); Avi tag (N); TEV cleavage site (ENLYFQG, then S; inferred from the forward primer hEPRS-TEV-NheF) (N); made in house; host or cells: E. coli BL21(DE3)
T1 sequence (P07814 998-1512 limits assumed): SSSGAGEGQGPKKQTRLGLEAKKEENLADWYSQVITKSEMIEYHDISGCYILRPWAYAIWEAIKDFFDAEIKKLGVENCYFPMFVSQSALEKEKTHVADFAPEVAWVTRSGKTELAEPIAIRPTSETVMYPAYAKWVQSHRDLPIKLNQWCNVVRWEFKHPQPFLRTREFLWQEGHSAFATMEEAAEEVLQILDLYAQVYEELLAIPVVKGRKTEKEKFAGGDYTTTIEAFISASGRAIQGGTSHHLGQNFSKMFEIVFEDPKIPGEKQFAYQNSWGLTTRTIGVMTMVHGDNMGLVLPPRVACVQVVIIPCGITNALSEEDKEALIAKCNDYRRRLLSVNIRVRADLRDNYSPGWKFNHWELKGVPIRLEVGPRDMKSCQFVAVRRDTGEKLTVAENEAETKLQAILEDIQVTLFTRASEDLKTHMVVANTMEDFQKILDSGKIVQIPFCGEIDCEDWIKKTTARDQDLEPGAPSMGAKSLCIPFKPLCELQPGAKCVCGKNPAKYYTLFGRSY
Procedure, shortened: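 Compound was pre-incubated 60 min with 40 nM His-Avi-hEPRS (998-1512) (stock, E. coli-expressed) in Tris pH 7.5/KCl/DTT/Tween/MgCl2. Reaction began with substrate mix containing 300 μM ATP, 160 μM L-proline, 400 μM [32P]pyrophosphate (stock levels) and ran 30 min at room temperature. Charcoal-bound radioactivity was counted; inhibition was relative to no-reaction control.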

[2] = tested on: human ovarian cancer cells A2780; test: proliferation inhibitory activity against human ovarian cancer cell A2780 (CellTiter-Glo); assay type: cell-based; conditions: A2780, 72 h, 1 μM test compound, 3 days of culture, read-out: proliferation inhibitory rate (%) of A2780 cells
Procedure, shortened: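 A2780 cells in RPMI-1640 with 10% FBS, compound added the day after seeding and cultured 3 days. Viability by CellTiter-Glo luminescence. Inhibition (%) calculated with cell-free wells as 100% inhibition.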

[3] = tested on: human fibrosarcoma cell line HT-1080; test: antitumor action on mice transplanted with human fibrosarcoma cell line HT-1080; assay type: in vivo, mouse; conditions: HT-1080, 10 mg/kg orally, once per day, 11 days
Experimental: An antitumor action of the compound of the present invention on mice transplanted with human malignant melanoma cell line SKMEL-2 and human fibrosarcoma cell line HT-1080 was evaluated by the following method.
Human fibrosarcoma cell line HT-1080 was subcutaneously transplanted by injection into 7-week-old BALB/cA Jcl-nu/nu female mouse (CLEA Japan, Inc.) by 7.5×10^6 cells. At 8 days from transplantation, the tumor diameter of the engrafted tumor was measured and the tumor volume was calculated by the following formula. tumor volume=major axis×minor axis×minor axis×(½)
Individuals having a tumor volume of 100 to 300 mm^3 were selected for SKMEL-2, and individuals having a tumor volume of 200 to 400 mm^3 were selected for HT-1080, and 4 or 5 mice per group were used for the experiment. A 0.5% methylcellulose suspension of the test compound was orally administered to the mice at the dose (dose per administration), administration frequency and dosing period shown in Table 3. The tumor diameter was measured one day before the start of administration and one day after completion of administration and the tumor volume was calculated.
The tumor proliferation rate (T/C (%)) of the test compound administration group in comparison with the control administration group was calculated by the following formula. […]

| inhibition at 0.3 µM [1] [%] | Compound | inhibition at 1 µM [2] [%] | T/C (%) tumor proliferation rate [3] [%] |
| --- | --- | --- | --- |
| 98 | Cn1cc(-c2cc(F)cc(CNC(=O)c3nccc4nc(CC5CC5)[nH]c34)c2)cn1 [Example 126, 2-(cyclopropylmethyl)-N-(3-fluoro-5-(1-methyl-1H-pyrazol-4-yl)benzyl)-3H-imidazo[4,5-c]pyridine-4-carboxamide] | 56 | – |
| 98 | O=C(NCc1ccccc1Cl)c1ncnc2nc(C3CCCC3)[nH]c12 [Example 1, N-(2-chlorobenzyl)-8-cyclopentyl-7H-purine-6-carboxamide] | 60 | – |
| 101 | Cn1cc(-c2cc(F)cc(CNC(=O)c3ncnc4nc(C5CCCC5)n(C)c34)c2)ccc1=O [Example 4, 8-cyclopentyl-N-(3-fluoro-5-(1-methyl-6-oxo-1,6-dihydropyridin-3-yl)benzyl)-7-methyl-7H-purine-6-carboxamide] | 99 | – |
| 96 | Cc1cc(-c2cc(F)cc(CNC(=O)c3cc(N4CC[C@@](C#N)(C5CC5)C4=O)cc(C)n3)c2)cnn1 [Example 207, 4-((3S)-3-cyano-3-cyclopropyl-2-oxopyrrolidin-1-yl)-N-(3-fluoro-5-(6-methylpyridazin-4-yl)benzyl)-6-methylpyridine-2-carboxamide] | 59 | – |
| 102 | CCn1c(C2CCCC2)nc2ccnc(C(=O)NCc3cc(F)cc(-c4cnn(C)c4)c3)c21 [Example 101, 2-cyclopentyl-3-ethyl-N-(3-fluoro-5-(1-methyl-1H-pyrazol-4-yl)benzyl)-3H-imidazo[4,5-c]pyridine-4-carboxamide] | 98 | – |
| 99 | Cn1cc(-c2ccnc(CNC(=O)c3ncnc4nc(C5CCCC5)n(C)c34)c2)cn1 [Example 52, 8-cyclopentyl-7-methyl-N-((4-(1-methyl-1H-pyrazol-4-yl)pyridin-2-yl)methyl)-7H-purine-6-carboxamide] | 69 | – |
| 98 | Cn1cc(-c2cc(F)cc(CNC(=O)c3nc(N)nc4nc(C5CCCC5)[nH]c34)c2)cn1 [Example 42, 2-amino-8-cyclopentyl-N-(3-fluoro-5-(1-methyl-1H-pyrazol-4-yl)benzyl)-7H-purine-6-carboxamide] | 59 | – |
| 101 | Cn1cc(-c2cc(F)cc(CNC(=O)c3ncnc4nc(C5COCCO5)[nH]c34)c2)cn1 (stereo not drawn) [Example 32, 8-(1,4-dioxan-2-yl)-N-(3-fluoro-5-(1-methyl-1H-pyrazol-4-yl)benzyl)-7H-purine-6-carboxamide] | 76 | -8.2 |
| 101 | COc1cc(-c2cc(F)cc(CNC(=O)c3nccc4nc(C5CCCC5)n(C)c34)c2)ccn1 [Example 96, 2-cyclopentyl-N-(3-fluoro-5-(2-methoxypyridin-4-yl)benzyl)-3-methyl-3H-imidazo[4,5-c]pyridine-4-carboxamide] | 95 | – |
| 99 | Cn1cc(-c2cc(F)cc(CNC(=O)c3ncnc4nc(C5(F)CCCC5)[nH]c34)c2)cn1 [Example 27, 8-(1-fluorocyclopentyl)-N-(3-fluoro-5-(1-methyl-1H-pyrazol-4-yl)benzyl)-7H-purine-6-carboxamide] | 97 | – |
| 102 | Cc1cn(-c2cc(F)cc(CNC(=O)c3ncnc4nc(C5CCCC5)n(C)c34)c2)nc1C [Example 56, 8-cyclopentyl-N-(3-(3,4-dimethyl-1H-pyrazol-1-yl)-5-fluorobenzyl)-7-methyl-7H-purine-6-carboxamide] | 99 | – |
| 101 | Cn1cc(-c2cc(F)c(F)c(CNC(=O)c3nccc4nc(C5CCCC5)[nH]c34)c2)cn1 [Example 90, 2-cyclopentyl-N-(2,3-difluoro-5-(1-methyl-1H-pyrazol-4-yl)benzyl)-3H-imidazo[4,5-c]pyridine-4-carboxamide] | 96 | – |
| 102 | Cn1cc(-c2cc(C#N)cc(CNC(=O)c3ncnc4nc(C5CCCO5)n(C)c34)c2)cn1 (stereo not drawn) [Example 23, N-(3-cyano-5-(l-methyl-1H-pyrazol-4-yl)benzyl)-7-methyl-8-(tetrahydrofuran-2-yl)-7H-purine-6-carboxamide] | 69 | – |
| 101 | Cn1c(C2CCCC2)nc2ccnc(C(=O)NCc3cc(F)cc(-c4cc[nH]c(=O)c4)c3)c21 [Example 97, 2-cyclopentyl-N-(3-fluoro-5-(2-oxo-1,2-dihydropyridin-4-yl)benzyl)-3-methyl-3H-imidazo[4,5-c]pyridine-4-carboxamide] | 98 | – |
| 99 | Cn1ncc2cccc(CNC(=O)c3nccc4nc(C5CCCC5)[nH]c34)c21 [Example 95, 2-cyclopentyl-N-((1-methyl-1H-indazol-7-yl)methyl)-3H-imidazo[4,5-c]pyridine-4-carboxamide] | 56 | – |
| 100 | Cn1cc(-c2cc(F)cc(CNC(=O)c3nccc4nc(C5CCCC5)n(C)c34)c2)ccc1=O [Example 92, 2-cyclopentyl-N-(3-fluoro-5-(1-methyl-6-oxo-1,6-dihydropyridin-3-yl)benzyl)-3-methyl-3H-imidazo[4,5-c]pyridine-4-carboxamide] | 99 | – |
| 102 | Cn1cc(-c2cc(F)cc(CNC(=O)c3ncnc4nc(C5CCCC5)n(C)c34)c2)nn1 [Example 7, 8-cyclopentyl-N-(3-fluoro-5-(1-methyl-1H-1,2,3-triazol-4-yl)benzyl)-7-methyl-7H-purine-6-carboxamide] | 95 | – |
| 101 | Cn1ccc(-c2cc(F)cc(CNC(=O)c3nccc4nc(C5CCCC5)n(C)c34)c2)cc1=O [Example 98, 2-cyclopentyl-N-(3-fluoro-5-(1-methyl-2-oxo-1,2-dihydropyridin-4-yl)benzyl)-3-methyl-3H-imidazo[4,5-c]pyridine-4-carboxamide] | 98 | – |
| 97 | Cn1cc2c(CNC(=O)c3ncnc4nc(C5CCCC5)[nH]c34)cccc2n1 [Example 10, 8-cyclopentyl-N-((2-methyl-2H-indazol-4-yl)methyl)-7H-purine-6-carboxamide] | 55 | – |
| 99 | Cn1cc(-c2cc(F)cc(CNC(=O)c3cc(N4CC[C@@](C#N)(C5CC5)C4=O)cc(C(F)F)n3)c2)cn1 [Example 214, 4-((3S)-3-cyano-3-cyclopropyl-2-oxopyrrolidin-1-yl)-6-(difluoromethyl)-N-(3-fluoro-5-(1-methyl-1H-pyrazol-4-yl)benzyl)pyridine-2-carboxamide] | 72 | – |
| 100 | Cc1cn(-c2cc(F)cc(CNC(=O)c3cc(N4CC[C@@](C#N)(C5CC5)C4=O)cc(C)n3)c2)cn1 [Example 228, 4-((3S)-3-cyano-3-cyclopropyl-2-oxopyrrolidin-1-yl)-N-(3-fluoro-5-(4-methyl-1H-imidazol-1-yl)benzyl)-6-methylpyridine-2-carboxamide] | 88 | – |
| 101 | CC(c1nc2ncnc(C(=O)NCc3cc(F)cc(-c4cnn(C)c4)c3)c2[nH]1)C1CC1 (stereo not drawn) [Example 45, 8-(1-cyclopropylethyl)-N-(3-fluoro-5-(1-methyl-1H-pyrazol-4-yl)benzyl)-7H-purine-6-carboxamide] | 99 | – |
